Experimental data from US8207216B2, “Benzofuran-3-yl(indol-3-yl) maleimides as potent GSK3 inhibitors” (The Board of Trustees of the University of Illinois, priority 2006, dated 2012).

How the values were obtained:
[1] = molecular target: T1, recombinant human His6-GSK-3β (Homo sapiens, UniProt P49841); assay: GSK-3β kinase assay, [γ32P] transfer to primed glycogen synthase peptide; format: biochemical; details: for IC50: 10 μM ATP, 10 μM pGSM peptide, 30 minutes at 30° C., read-out: IC50 (nM), GSK-3β inhibition;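 as to all read-outs here: phosphate incorporation quantified by liquid scintillation counting of the filters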
T1 construct: His6; purchased EMD Biosciences
T1 sequence (P49841 whole entry): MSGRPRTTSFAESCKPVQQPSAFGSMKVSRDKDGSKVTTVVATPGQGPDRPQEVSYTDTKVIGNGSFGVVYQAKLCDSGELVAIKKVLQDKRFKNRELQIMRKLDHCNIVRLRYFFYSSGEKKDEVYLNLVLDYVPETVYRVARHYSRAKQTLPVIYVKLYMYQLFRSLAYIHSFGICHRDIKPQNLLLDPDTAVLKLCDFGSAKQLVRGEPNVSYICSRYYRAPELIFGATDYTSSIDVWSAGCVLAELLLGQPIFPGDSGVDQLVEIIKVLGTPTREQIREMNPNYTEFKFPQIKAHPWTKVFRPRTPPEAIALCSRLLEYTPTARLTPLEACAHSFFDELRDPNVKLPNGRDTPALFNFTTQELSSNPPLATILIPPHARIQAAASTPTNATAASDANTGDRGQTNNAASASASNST

[2] = molecular target: CDK-2/cyclinE (Homo sapiens, UniProt P24941); assay: CDK-2/CyclinE inhibition (Reaction Biology); format: biochemical; details: for IC50: tested at Reaction Biology, Inc.; for IC50 Ratio CDK-2/cyclinE GSK-3β: selectivity ratio
[3] = tested on: MIAPaCa-2; assay: Antiproliferation MTS assay, pancreatic cancer cells; format: cell-based; details: Homo sapiens, MIA PaCa-2; 72 hrs, MTS

Row | Compound | IC50 [1] [nM] | also measured
1 | Cn1cc(C2=C(c3coc4ccccc34)C(=O)NC2=O)c2cc(F)ccc21 [Compound 6, 3-Benzofuran-3-yl-4-(5-fluoro-1-methyl-1H-indol-3-yl)-pyrrole-2,5-dione] | 26 ± 6 | 
2 | COc1cccc2c(C3=C(c4cn(C)c5c(Br)cc(Br)cc45)C(=O)NC3=O)coc12 [Compound 26, 3-(5,7-Dibromo-1-methyl-1H-indol-3-yl)-4-(7-methoxy-benzofuran-3-yl)-pyrrole-2,5-dione] | 88.7 ± 5.6 | 
3 | Cn1cc(C2=C(c3coc4cc(CO)ccc34)C(=O)NC2=O)c2cccc(CO)c21 [Compound 51, 3-(6-Hydroxymethyl-benzofuran-3-yl)-4-(7-hydroxymethyl-1-methyl-1H-indol-3-yl)-pyrrole-2,5-dione] | 5.1 ± 1.2 | 
4 | Cn1cc(C2=C(c3coc4ccc(F)cc34)C(=O)NC2=O)c2cc(I)ccc21 [Compound 29, 3-(5-Fluoro-benzofuran-3-yl)-4-(5-iodo-1-methyl-1H-indol-3-yl)-pyrrole-2,5-dione] | 180 ± 11 | 
5 | Cn1cc(C2=C(c3coc4ccc(Br)cc34)C(=O)NC2=O)c2ccccc21 [Compound 3, 3-(5-Bromo-benzofuran-3-yl)-4-(1-methyl-1H-indol-3-yl)-pyrrole-2,5-dione] | 550 ± 20 | 
6 | O=C1NC(=O)C(c2coc3ccccc23)=C1c1c[nH]c2ccc(F)cc12 [Compound 5, 3-Benzofuran-3-yl-4-(5-fluoro-1H-indol-3-yl)-pyrrole-2,5-dione] | 360 ± 40 | IC50 [3]: 21 µM
7 | Cn1cc(C2=C(c3coc4ccc(F)cc34)C(=O)NC2=O)c2cc(Cl)ccc21 [Compound 27, 3-(5-Chloro-1-methyl-1H-indol-3-yl)-4-(5-fluoro-benzofuran-3-yl)-pyrrole-2,5-dione] | 34.5 ± 3.8 | IC50 Ratio CDK-2/cyclinE GSK-3β [2]: 2.6; IC50 [2]: 1840 nM
8 | Cn1cc(C2=C(c3coc4ccccc34)C(=O)NC2=O)c2cccc(CO)c21 [Compound 82] |  | IC50 Ratio CDK-2/cyclinE GSK-3β [2]: 27; IC50 [2]: 149 nM
9 | COc1cccc2c(C3=C(c4cn(C)c5cc(Br)c(F)cc45)C(=O)NC3=O)coc12 [Compound 11, 3-(6-Bromo-5-fluoro-1-methyl-1H-indol-3-yl)-4-(7-methoxy-benzofuran-3-yl)-pyrrole-2,5-dione] | 59.7 ± 6.57 | 
10 | Cn1cc(C2=C(c3coc4cc(CO)ccc34)C(=O)NC2=O)c2cc(F)ccc21 [Compound 7, 3-(5-Fluoro-1-methyl-1H-indol-3-yl)-4-(6-hydroxymethyl-benzofuran-3-yl)-pyrrole-2,5-dione] | 0.35 ± 0.06 | IC50 [2]: 237 nM
11 | Cn1cc(C2=C(c3coc4cc(CO)ccc34)C(=O)NC2=O)c2cccc(CO)c21 [Compound 83] |  | IC50 Ratio CDK-2/cyclinE GSK-3β [2]: 5; IC50 [2]: 27 nM
12 | Cn1cc(C2=C(c3coc4cc(O)ccc34)C(=O)NC2=O)c2cc(F)ccc21 [Compound 9, 3-(5-Fluoro-1-methyl-1H-indol-3-yl)-4-(6-hydroxy-benzofuran-3-yl)-pyrrole-2,5-dione] | 3.5 ± 1.3 | 
13 | Cn1cc(C2=C(c3coc4ccccc34)C(=O)NC2=O)c2cccc(CO)c21 [Compound 50, 3-Benzofuran-3-yl-4-(7-hydroxymethyl-1-methyl-1H-indol-3-yl)-pyrrole-2,5-dione] | 5.4 ± 0.7 | 
14 | O=C1NC(=O)C(c2coc3ccc(F)cc23)=C1c1c[nH]c2ccccc12 [Compound 2, 3-(5-Fluoro-benzofuran-3-yl)-4-(1H-indol-3-yl)-pyrrole-2,5-dione] | 670 ± 40 | 
15 | COc1cccc2c(C3=C(c4cn(C)c5ccccc45)C(=O)NC3=O)coc12 [Compound 4, 3-(7-Methoxy-benzofuran-3-yl)-4-(1-methyl-1H-indol-3-yl)-pyrrole-2,5-dione] | 180 ± 15 | 
16 | 3-(6-Chloro-5-methoxy-1-methyl-1H-indol-3-yl)-4-(6-methoxy-benzofuran-3-yl)-pyrrole-2,5-dione [Compound 14] | 870 ± 160 | Ki [1]: 580 nM
17 | CCOC(=O)CCc1cccc2c(C3=C(c4coc5ccccc45)C(=O)NC3=O)cn(C)c12 [Compound 93] | 10.2 ± 3.6 | 

More lines, main results first:

Row | IC50 [1] [nM] | Compound | also measured
18 | 235 ± 15 | Cn1cc(C2=C(c3coc4ccccc34)C(=O)NC2=O)c2cc(C3CC3)ccc21 [Compound 37, 3-Benzofuran-3-yl-4-(5-cyclopropyl-1-methyl-1H-indol-3-yl)-pyrrole-2,5-dione] | IC50 [2]: 32000 nM
19 | 220 ± 30 | O=C1NC(=O)C(c2cn(CCCO)c3ccc(OCc4ccccc4)cc23)=C1c1coc2ccccc12 [Compound 32, 3-Benzofuran-3-yl-4-[5-benzyloxy-1-(3-hydroxy-propyl)-1H-indol-3-yl]-pyrrole-2,5-dione] | 
20 | 335 ± 37 | COc1ccc(COc2ccc3c(C4=C(c5cn(C)c6ccc(Br)cc56)C(=O)NC4=O)coc3c2)cc1 [Compound 25, 3-(5-Bromo-1-methyl-1H-indol-3-yl)-4-[6-(4-methoxy-benzyloxy)-benzofuran-3-yl]-pyrrole-2,5-dione] | 
21 | 900 ± 80 | Cn1cc(C2=C(c3coc4ccccc34)C(=O)NC2=O)c2ccc(OCc3ccccc3)cc21 [Compound 47, 3-Benzofuran-3-yl-4-(6-benzyloxy-1-methyl-1H-indol-3-yl)-pyrrole-2,5-dione] | 
22 | 0.35 ± 0.06 | CN1C(=O)C(c2coc3cc(CO)ccc23)=C(c2cn(C)c3ccc(F)cc23)C1=O [Compound 56, 3-(5-Fluoro-1-methyl-1H-indol-3-yl)-4-(6-hydroxymethyl-benzofuran-3-yl)-1-methyl-pyrrole-2,5-dione] | 
23 | 1300 ± 146 | Cn1cc(C2=C(c3coc4ccccc34)C(=O)NC2=O)c2cc(N3CCOCC3)ccc21 [Compound 39, 3-Benzofuran-3-yl-4-(1-methyl-5-morpholin-4-yl-1H-indol-3-yl)-pyrrole-2,5-dione] | 
24 | 125 ± 35 | COc1ccc2c(c1)c(C1=C(c3coc4ccccc34)C(=O)NC1=O)cn2C [Compound 41, 3-Benzofuran-3-yl-4-(5-methoxy-1-methyl-1H-indol-3-yl)-pyrrole-2,5-dione] | 
25 | 48.3 ± 7 | C=CCOc1ccc2c(C3=C(c4cn(C)c5ccc(Br)cc45)C(=O)NC3=O)coc2c1 [Compound 24, 3-(6-Allyloxy-benzofuran-3-yl)-4-(5-bromo-1-methyl-1H-indol-3-yl)-pyrrole-2,5-dione] | 
26 | 500 ± 60 | Cn1cc(C2=C(c3coc4ccccc34)C(=O)NC2=O)c2cc(OCc3ccccc3)ccc21 [Compound 31, 3-Benzofuran-3-yl-4-(5-benzyloxy-1-methyl-1H-indol-3-yl)-pyrrole-2,5-dione] | 
27 | 7160 ± 1200 | COc1cccc2c(C3=C(c4cn(C)c5cc(-c6ccc(Cl)cc6)c(F)cc45)C(=O)NC3=O)coc12 [Compound 18, 3-[6-(4-Chlorophenyl)-5-fluoro-1-methyl-1H-indol-3-yl]-4-(7-methoxy-benzofuran-3-yl)-pyrrole-2,5-dione] | 
28 | 13.2 ± 3.2 | Cn1cc(C2=C(c3coc4cc(CO)ccc34)C(=O)NC2=O)c2cc(C#N)ccc21 [Compound 34, 3-[4-(6-Hydroxymethyl-benzofuran-3-yl)-2,5-dioxo-2,5-dihydro-1H-pyrrol-3-yl]-1-methyl-1H-indole-5-carbonitrile] | 
29 | 55 ± 8 | Cn1cc(C2=C(c3coc4ccccc34)C(=O)NC2=O)c2cccc(O)c21 [Compound 53, 3-Benzofuran-3-yl-4-(7-hydroxy-1-methyl-1H-indol-3-yl)-pyrrole-2,5-dione] | 
30 | 1.2 ± 0.2 | Cn1cc(C2=C(c3coc4ccccc34)C(=O)NC2=O)c2cccc(CCC(=O)O)c21 [Compound 86] | 
31 | 690 ± 100 | Cn1cc(C2=C(c3coc4ccccc34)C(=O)NC2=O)c2cc(O)ccc21 [Compound 30, 3-Benzofuran-3-yl-4-(5-hydroxy-1-methyl-1H-indol-3-yl)-pyrrole-2,5-dione] | 
32 | 220 ± 45 | Cn1cc(C2=C(c3coc4ccccc34)C(=O)NC2=O)c2cccc(OCc3ccccc3)c21 [Compound 54, 3-Benzofuran-3-yl-4-(7-benzyloxy-1-methyl-1H-indol-3-yl)-pyrrole-2,5-dione] | 
33 | 160 ± 35 | Cn1cc(C2=C(c3coc4ccc(F)cc34)C(=O)NC2=O)c2ccc(OCc3ccccc3)cc21 [Compound 48, 3-(6-Benzyloxy-1-methyl-1H-indol-3-yl)-4-(5-fluoro-benzofuran-3-yl)-pyrrole-2,5-dione] | IC50 [3]: 80 µM
34 | 1650 ± 200 | O=C1NC(=O)C(c2coc3ccccc23)=C1c1c[nH]c2ccc(OCc3ccccc3)cc12 [Compound 44, 3-Benzofuran-3-yl-4-(5-benzyloxy-1H-indol-3-yl)-pyrrole-2,5-dione] | IC50 [3]: 21 µM
35 | 223 ± 22 | COc1cc2c(C3=C(c4coc5ccccc45)C(=O)NC3=O)cn(C)c2cc1I [Compound 43, 3-Benzofuran-3-yl-4-(6-iodo-5-methoxy-1-methyl-1H-indol-3-yl)-pyrrole-2,5-dione] | 
36 | 0.73 ± 0.1 | COCc1cccc2c(C3=C(c4coc5cc(CO)ccc45)C(=O)NC3=O)cn(C)c12 [Compound 92] | 
